Values after ≈ are worked out from the molar mass of the structure shown. Where two headings read alike, the source gives them in different places.
What was measured:
[1] = test system: S. cerevisiae (ATCC 9080); assay: Disk diffusion antimicrobial test, S. cerevisiae; assay type: cell-based; settings: Saccharomyces cerevisiae, ATCC9080, yeast, 20 mg per disc (title), concentration 20 µg (footnote)
Experimental: (§1) The newly synthesized compounds were chosen to be evaluated in vitro towards a variety of pathogenic microorganisms; Gram-positive bacteria: S. aureus (ATCC 6538) and B. subtilis (ATCC 6633); Gram-negative bacteria: P. areuginosa (ATCC 27853) and E. coli (DSMZ 1058); yeast: C. albicans (ATCC 10231) and S. cerevisiae (ATCC 9080) and fungi: A. niger (NRRL A-326) using the disk diffusion method at a single dose of 20 µl. The results are shown in Table 1 as the growth inhibition zone (mm).
(§2) The antimicrobial activity of target compounds were evaluated to be in vitro against a variety of pathogenic microorganisms, namely Staphylococcus aureus (ATCC 6538), Bacillus subtilis (ATCC 6633) (Gram-positive bacteria), Pseudomonas areuginosa (ATCC 27853), Escherichia coli (DSMZ 1058) (Gram-negative bacteria), Candida albicans (ATCC 10231), Saccharomyces cerevisiae (ATCC 9080) (Yeast) and Aspergillus niger (NRRL A-326) (Fungi) using the disk diffusion method at a single dose of 20 µg. The microorganisms were served and obtained from the Microbial Biotechnology Department, National Research Center, Giza, Egypt. Amphotericin, amoxicillin and ciprofloxacin were used as reference drugs (Oxoid™ Disks). The tested compounds 11a–c, 12a–c, 13a–i, 14a–i and 15a,b were dissolved in dimethylsulphoxide (DMSO) at a concentration of 1 mg/mL. Aliquots of 20 μl were soaked on filter paper discs (6 mm) and dried at room temperature under sterilized conditions. The paper discs were placed on inoculated agar plats and then incubated for 24 h at 37 °C for bacterial strains and after 48–72 h incubation at 30 °C for fungi. Both bacterial and yeast strains were grown on nutrient agar medium (g/l): beef extract, 3; peptone, 10 and agar, 20 at pH of 7.2. The fungal strain was grown on Czapek-Dox medium (g/l): sucrose, 30; NaNO3, 3; MgSO4.7H2O, 0.5l; KCl, 0.5; FeSO4, 0.01; K2HPO4, 1 and agar, 20 at pH of 6.0.

C. albicans (ATCC 10231) = assay: Disk diffusion antimicrobial test, C. albicans; assay type: cell-based, Candida albicans; settings: Candida albicans, ATCC10231, disk diffusion; yeast; 20 mg per disc (title), concentration 20 µg (footnote)
Experimental: as §1, §2

A. niger (NRRL A-326) = assay: Disk diffusion antimicrobial test, A. niger; assay type: cell-based; settings: Aspergillus niger, fungi, 20 mg per disc (title), concentration 20 µg (footnote)
Experimental: as §1, §2

[2] = test system: P. aeruginosa (ATCC 27853); assay: Disk diffusion antimicrobial test, P. aeruginosa; assay type: cell-based, Pseudomonas areuginosa; settings: Pseudomonas aeruginosa, ATCC27853, Gram-negative, 20 mg per disc (title), concentration 20 µg (footnote)
Experimental: as §1, §2

E. coli (DSMZ 1058) = assay: Disk diffusion antimicrobial test, E. coli; assay type: cell-based; settings: Escherichia coli, DSMZ1058, Gram-negative, 20 mg per disc (title), concentration 20 µg (footnote)
Experimental: as §1
The antimicrobial activity of target compounds were evaluated to be in vitro against a variety of pathogenic microorganisms, namely Staphylococcus aureus (ATCC 6538), Bacillus subtilis (ATCC 6633) (Gram-positive bacteria), Pseudomonas areuginosa (ATCC 27853), Escherichia coli (DSMZ 1058) (Gram-negative bacteria), Candida albicans (ATCC 10231), Saccharomyces cerevisiae (ATCC 9080) (Yeast) and Aspergillus niger (NRRL A-326) (Fungi) using the disk diffusion method at a single dose of 20 µg. The microorganisms were served and obtained from the Microbial Biotechnology Department, National Research Center, Giza, Egypt. Amphotericin, amoxicillin and ciprofloxacin were used as reference drugs (Oxoid™ Disks). The tested compounds 11a–c, 12a–c, 13a–i, 14a–i and 15a,b were dissolved in dimethylsulphoxide (DMSO) at a concentration of 1 mg/mL. […]

p53 [3] = assay: p53 ELISA in HCT-116 cells; assay type: cell-based, human; settings: HCT-116 cells treated at IC50 concentration; control 1.68 ± 0.06; mean ± SD
Text: (§3) The promising antiproliferative results reported for compounds 11a, 11b, 12a, 12b and 13c against cell lines under study have prompted us to investigate the mechanism of cell death induced by these compounds. Apoptosis induction was examined in both MCF-7 and HCT-116 cancer cells by assaying the level of its key protein markers, namely: proapoptotic (p53, Bcl 2-associated X, Bax and caspases3) and antiapoptotic (B-cell lymphoma-2, Bcl-2). MCF-7 and HCT-116 cells undergoing apoptosis was detected by use of the ELISA technique. Protein marker levels were quantified according to Bradford assay.
(§4) Briefly, cells ([…] and HCT) were seeded at a concentration of 1.2–1.8 × 10^3 cells/well in 6-well plates. After 48-h treatment, the collected cells were lysed and centrifuged at 10,000 rpm for 20 min at 4 °C. The protein concentration was measured in the supernatant by Bradford protein assay. Volume containing […] of total protein was incubated with […] of caspase substrate in […] of the reaction buffer at 37 °C for 1 h in the dark. Caspase-3 activity was determined by a microplate reader at 405 nm using a caspase-3 colorimetric assay kit (Abcam) according to the manufacturer’s instructions. In vitro protein level quantitative measurement of apoptotic marker p53, Bcl-2-associated X (Bax) and antiapoptotic marker B-cell lymphoma-2 (Bcl-2) in cell lysate were assessed by Enzyme-Linked Immunosorbent Assay Simple Step ELISA® (ab199080, ab119506 and ab171571; Abcam) according to the manufacturer’s instructions.

Bax [4] = assay: Bax ELISA in MCF-7 cells; assay type: cell-based, human; settings: MCF-7 cells treated at IC50 concentration; control 39.56 ± 4.56; mean ± SD
Text: as §3, §4

[5] = test system: HepG-2 (human liver cancer); assay: MTT cytotoxicity assay, HepG-2; assay type: cell-based
Experimental: (§5) MCF-7 (human breast cancer), HCT-116 (human colon cancer) and HepG2 (human liver cancer) cell lines were obtained from Karolinska Institute, Stockholm, Sweden. All cells were maintained in RPMI 1640 medium. The media were supplemented with 10% heat-inactivated fetal bovine serum plus 1% antibiotic-antimycoticmixture (10,000 U/mL of potassium penicillin, 10,000 μg/mL of streptomycin sulfate, 25 μg/mL of amphotericin B and 1% of L glutamine (Biowest, USA)). BJ-1 of a human skin fibroblast derived from normal foreskin was obtained from ATCC® CRL-2522™ as a frozen ampoule with about 1 × 10^6 cells per 1 ml volume. BJ-1 was maintained in MEM with 2 mM of L-glutamine and Earle’s salts medium.
(§6) Cell viability was studied using the MTT 3-(4,5-dimethylthiazol-2-yl)-2,5-diphenyl-tetrazolium bromide (Bio Basic Canada Inc. Toronto, Canada) assay [33]. The steps were executed in a sterile laminar air flow cabinet biosafety class II level (Baker, SG403INT; Sanford, ME, USA). All incubations were carried out at 37 °C in a 5% CO2 incubator under a humidified atmosphere of 95% (Sheldon, TC2323; Cornelius, OR, USA). Cells were seeded into 96-well microtiter plastic plates at a concentration of (10^4 cells/well) and allowed to adhere for 24 h. The medium was aspirated and then added to the cells with the test compounds 11a–c, 12a–c, 13a–i, 14a–i and 15a,b at a single dose of 100 μg/mL in DMSO. After incubation of the medium for 48 h, 40 μL of MTT salt (2.5 μg/mL) was added to each well and then incubated for an additional 4 h. To stop the reaction and dissolve any formed formazan crystals, 200 μL of 10% sodium dodecyl sulfate (SDS) were added to each well and incubated overnight at 37 °C. The amount of formazan product was measured at 595 nm with a reference wavelength of 690 nm as a background using a microplate reader (Bio-Rad Laboratories, model 3350, California, USA). For the untreated cells (negative control), the medium was added instead of the tested compounds. […] Dimethylsulfoxide (DMSO) was the vehicle used for dissolution of the testing compound, and its final concentration on the cells was less than 0.2%. At the same dilution, the solvent concentration was the same for all drugs and between the control and drug treatments.

p53 [6] = assay: p53 ELISA in MCF-7 cells; assay type: cell-based, human; settings: MCF-7 cells treated at IC50 concentration; control 4.18 ± 0.58; mean ± SD
Text: as §3, §4

Bax [7] = assay: Bax ELISA in HCT-116 cells; assay type: cell-based, human; settings: HCT-116 cells treated at IC50 concentration; control 118.54 ± 0.83; mean ± SD
Text: as §3, §4

[8] = test system: MCF-7 (human breast cancer); assay: MTT cytotoxicity assay, MCF-7; assay type: cell-based
Experimental: as §5, §6

Bcl-2 [9] = assay: Bcl-2 ELISA in HCT-116 cells; assay type: cell-based, human; settings: HCT-116 cells treated at IC50 concentration; control 23.56 ± 3.56; mean ± SD
Text: as §3, §4

[10] = test system: normal skin fibroblast cells (BJ-1); assay: MTT cytotoxicity assay, normal skin fibroblast BJ-1; assay type: cell-based; settings: Homo sapiens, 48 h, read-out: Growth Inhibition (%) BJ-1
Experimental: as §5, §6

[11] = DPPH free radical scavenging assay; assay type: biochemical; settings: concentration of 20µg/l, mean ± SD of three experiments
Experimental: Antioxidant activity of the newly synthesized 13a–i, 14a–i, 11a–c and 12a–c were assessed in terms of hydrogen-donating or radical-scavenging ability via the stable free radical 1,1-diphenyl-2-picrylhydrazyl (DPPH) using ascorbic acid as a reference at a concentration of […].
The free radical scavenging activity (RSA) was assessed spectrophotometically at 517 nm via decoloration of the solution of the DPPH (1,1-diphenyl-2-picrylhydrazyl) radical according to Brand-Williams et al. 1995 [32]. DPPH solution was prepared by dissolving of 20 mg of DPPH in one liter of dimethylsulphoxide (DMSO). A freshly prepared DPPH solution was used for the assay. Each of the tested compounds 11a–c, 12a–c, 13a–i, 14a–i and 15a,b were dissolved in DMSO (1mg/mL). A volume of […] of a DMSO stock solution of the test compounds was added to 2 mL of freshly prepared DPPH in DMSO solution. The mixtures were shaken in a vortex (2500 rpm) for 1 min and then left to stand for 15, 30, 45 and 60 min in the dark room. The absorbance was measured at 517 nm against blank using UV visible spectrophotometer 2401 PC (Shimadzu, Kyoto, Japan). Lower absorbance of the reaction mixture indicated higher free radical scavenging activity was analyzed from the graph plots of the inhibition percentage against the compound concentration. The experiment was carried out in triplicate and averaged. The scavenging activity was calculated according to the following formula:Scavenging ability (%) = (A517 of control - A517of sample / A 517 of control) ×100(1)

caspase-3 [12] = assay: Caspase-3 colorimetric assay in MCF-7 cells; assay type: cell-based, human
Text: as §3, §4

Bcl-2 [13] = assay: Bcl-2 ELISA in MCF-7 cells; assay type: cell-based, human; settings: MCF-7 cells treated at IC50 concentration; control 25.13 ± 3.45; mean ± SD
Text: as §3, §4

[14] = test system: HCT-116 (human colon cancer); assay: MTT cytotoxicity assay, HCT-116; assay type: cell-based; settings: Homo sapiens
Experimental: as §5, §6

caspase-3 [15] = assay: Caspase-3 colorimetric assay in HCT-116 cells; assay type: cell-based, human; settings: HCT-116 cells treated at IC50 concentration; control 13.60 ± 2.45; mean ± SD
Text: as §3, §4

S. aureus (ATCC 6538) = assay: Disk diffusion antimicrobial test, S. aureus; assay type: cell-based, Staphylococcus aureus; settings: Staphylococcus aureus, ATCC6538, Gram-positive, 20 mg per disc (title), concentration 20 µg (footnote)
Experimental: as §1, §2

B. subtilis (ATCC 6633) = assay: Disk diffusion antimicrobial test, B. subtilis; assay type: cell-based, Bacillus subtilis; settings: Bacillus subtilis, ATCC6633, Gram-positive, 20 mg per disc (title), concentration 20 µg (footnote)
Experimental: as §1, §2

[16] = 15 min, read-out: Scavenging Activity (%) on DPPH radicals at 15 min
[17] = 30 min, read-out: Scavenging Activity (%) on DPPH radicals at 30 min
[18] = 45 min, read-out: Scavenging Activity (%) on DPPH radicals at 45 min
[19] = 60 min, read-out: Scavenging Activity (%) on DPPH radicals at 60 min

Work on `C[C@@H]1[C@H](O)[C@@H](C)/C=C/C=C/C=C/C=C/C=C/C=C/C=C/[C@H](O[C@@H]2O[C@H](C)[C@@H](O)[C@H](N)[C@@H]2O)C[C@@H]2O[C@](O)(C[C@@H](O)C[C@@H](O)[C@H](O)CC[C@@H](O)C[C@@H](O)CC(=O)O[C@H]1C)C[C@H](O)[C@H]2C(=O)O` [Amphotericin B, amphotericin B, reference compound] yielded a zone of inhibition at 20 µg/disc [1] of 23.5 mm, a zone of inhibition at 20 µg/disc (C. albicans (ATCC 10231)) of 23.5 mm and a zone of inhibition at 20 µg/disc (A. niger (NRRL A-326)) of 26.7 mm.

For `O=C(O)c1cn(C2CC2)c2cc(N3CCNCC3)c(F)cc2c1=O` [Ciprofloxacin, ciprofloxacin, reference compound], the zone of inhibition at 20 µg/disc [2] was 30.2 mm and the zone of inhibition at 20 µg/disc (E. coli (DSMZ 1058)) was 25.8 mm.

In the case of `O=C1Nc2ccccc2C12CC(c1cn(Cc3ccccc3)c3ccccc13)=NN2` (centres unmarked) [Compound 13c, 5’-(N-Benzyl-1H-indol-3-yl)-2’,4’-dihydrospiro(indoline-3,3’-pyrazol)-2-one], the “p53 (pg/50 mg Protein)” value (p53 [3]) is reported as 2.34 ± 0.95 pg/50 mg Protein, the “Bax (pg/50 mg Protein)” value (Bax [4]) is reported as 88.34 ± 3.79 pg/50 mg Protein and the inhibition at 100 µg/mL ([5]; HepG2, 100 µg/ml, 48 h, read-out: Growth Inhibition (%) HepG-2) is reported as 90.9%. For the same compound, the IC50 ([5]; HepG2, 48 h post-treatment) was 27 µg/mL (≈ 68.8 µM), the “p53 (Pg/50 mg Protein)” value (p53 [6]) was 7.34 ± 1.5 Pg/50 mg Protein and the “Bax (pg/50 mg Protein)” value (Bax [7]) was 123.45 ±7.45 pg/50 mg Protein. The inhibition at 100 µg/mL ([8]; MCF7, 100 µg/ml, 48 h, read-out: Growth Inhibition (%) MCF-7) was 97.8%, the IC50 ([8]; MCF7, 48 h post-treatment) was 24.1 µg/mL (≈ 61.4 µM) and the “Bcl-2 (ng/50 mg Protein)” value (Bcl-2 [9]) was 57.45 ± 6.45 ng/50 mg Protein. It also gave an inhibition at 100 µg/mL [10] of 5.1%, an inhibition [11, 16] of 14 ± 1.36% and an inhibition [11, 17] of 21 ± 1.26%. For the same compound, the inhibition [11, 18] was 24 ± 1.51%, the inhibition [11, 19] was 35.1 ± 1.61% and the “Caspase-3 Activity %” value (caspase-3 [12]; MCF-7 cells treated at IC50 concentration, control 10.2 ± 2.84, mean ± SD) was 39.07 ± 4.97%. The “Elevation of active caspase-3 protein levels compared to the control” value (caspase-3 [12]; MCF-7 cells, IC50 concentration) was roughly 3.8 folds, the “Bcl-2 (ng/50 mg Protein)” value (Bcl-2 [13]) was 44.5 ± 4.56 ng/50 mg Protein and the inhibition at 100 µg/mL ([14]; HCT-116, 100 µg/ml, 48 h, read-out: Growth Inhibition (%) HCT-116) was 97.9%. The IC50 ([14]; HCT-116, 48 h, 48 h post-treatment) was 14.7 µg/mL (≈ 37.5 µM) and the “Caspase-3 Activity %” value (caspase-3 [15]) was 47.32 ± 6.32%.

`COc1c(-c2cnc3ccccc3c2C(=O)O)c(O)cc2occc12` [Compound 15a, 3-(6-Hydroxy-4-methoxybenzofuran-5-yl)quinoline-4-carboxylic acid] gave a zone of inhibition at 20 µg/disc (S. aureus (ATCC 6538)) of 8 mm, a zone of inhibition at 20 µg/disc (C. albicans (ATCC 10231)) of 12 mm and a zone of inhibition at 20 µg/disc (B. subtilis (ATCC 6633)) of 16 mm. It also gave an inhibition [11, 16] of 9.36 ± 1.25%, an inhibition [11, 17] of 14.2 ± 1.61% and an inhibition [11, 18] of 20.4 ± 1.92%. It also gave an inhibition [11, 19] of 24.8 ± 2.05%, a zone of inhibition at 20 µg/disc [2] of 24 mm and a zone of inhibition at 20 µg/disc (A. niger (NRRL A-326)) of 10 mm. The melting point was 217 to 219 °C.

Source: PMC7179167 (Molecules, 2020)
